Test results from patent US20110110930A1, “Mitogen-Activated Protein Kinase Kinase Kinase 14 (MAP3K14) Polymorphisms As Indicators of Subject Outcome in Critically Ill Subjects” (priority 2007, published 2011).
Entries after “also recorded” stand apart in the source; their conditions may differ.

Tested on: ICU subjects with severe sepsis
Assay: Response to steroids in ICU severe sepsis subjects by MAP3K14 rs7222094 genotype (28-day survival, days alive and free of organ dysfunction)
Format: in vivo, human
Settings: for SURV (28-Day Survival): % (N survived); for Delta SURV (28-Day Survival): treat (steroid-treated) minus cont (steroid untreated controls), difference of % survival; for Delta COAG.DAF (Days alive and free of coagulation dysfunction) / Delta CVS.DAF (Days alive and free of cardiovascular dysfunction) / Delta DA (Days alive) / Delta INR.DAF (Days alive and free of international normalized ratio >1.5) / Delta LIVER.DAF (Days alive and free of any type of hepatic dysfunction) / Delta PRESS.DAF (Days alive and free of any vasopressors) / Delta RENAL.DAF (Days alive and free of any type of renal dysfunction) / Delta RENSUP.DAF (Days alive and free of renal support) / Delta RESP.DAF (Days alive and free of respiratory dysfunction) / Delta VENT.DAF (Days alive and free of mechanical ventilators): treat minus cont (steroid untreated controls), difference of medians
Method: All subjects admitted to the ICU of St. Paul's Hospital (SPH) were screened for study inclusion. SPH ICU is a mixed medical-surgical ICU in a tertiary care, university-affiliated teaching hospital. Subjects were included in the study if they met at least two out of four SIRS criteria: 1) fever (>38° C.) or hypothermia (<36° C.), 2) tachycardia (>90 beats/minute), 3) tachypnea (>20 breaths/minute), PaCO2<32 mm Hg, or need for mechanical ventilation, and 4) leukocytosis (total leukocyte count>12,000 mm^3) or leukopenia (<4,000 mm^3). Subjects were included in the analysis if they met the diagnostic criteria for septic shock (sepsis and cardiovascular dysfunction (as defined by Brussels scoring system) and one other organ dysfunction) on admission to the ICU. Subjects were excluded if blood could not be obtained for genotype analysis. Baseline characteristics (age, gender, admission APACHE II score (KNAUS W A. et al. Crit. Care Med. (1985) 13:818-829), together with medical vs. surgical diagnosis KNAUS W A. et al. Chest (1991) 100:1619-1636) were recorded on admission to the ICU. The full cohort meeting these criteria included 1072 Caucasian subjects and 153 Asian subjects.
The primary outcome variable evaluated in this study was 28-day mortality. Various organ dysfunctions were considered as secondary outcome variables. Baseline demographics recorded were age, gender, admission APACHE II score (KNAUS W A. et al. Crit. Care Med (1985) 13:818-829), and medical or surgical diagnosis on admission to the ICU (based on the APACHE III diagnostic codes) (KNAUS W A. et al. Chest (1991) 100:1619-1636) (TABLE 2B).
After meeting the inclusion criteria, data were recorded for each 24-hour period (8 am to 8 am) for 28-days after ICU admission or until hospital discharge to evaluate organ dysfunction, the intensity of SIRS (Systemic Inflammatory Response Syndrome) and sepsis. Raw clinical and laboratory variables were recorded using the worst or most abnormal variable for each 24-hour period with the exception of Glasgow Coma Score, for which the best possible score for each 24-hour period was recorded. Missing data on the date of admission was assigned a normal value and missing data after day one was substituted by carrying forward the value from the previous day. When data collection for each patient was complete, all patient identifiers were removed from all records and the patient file was assigned a unique random number linked with the blood samples. The completed raw data file was used to calculate descriptive and severity of illness scores using standard definitions as described below.
Organ dysfunction was first evaluated at baseline and then daily using the Brussels score (SIBBALD W J. and VINCENT J L. Chest (1995) 107(2):522-7) (see TABLE 2A in General Methods Section). If the Brussels score was moderate, severe, or extreme dysfunction then organ dysfunction was recorded as present on that day. To correct for deaths during the observation period, we calculated the days alive and free of organ dysfunction (RUSSELL J A. et al. Crit. Care Med (2000) 28(10):3405-11 and BERNARD G R. et al. Chest (1997) 112(1):164-72) (TABLE 2C). For example, the severity of cardiovascular dysfunction was assessed by measuring days alive and free of cardiovascular dysfunction over a 28-day observation period. Days alive and free of cardiovascular dysfunction was calculated as the number of days after inclusion that a patient was alive and free of cardiovascular dysfunction over 28-days. Thus, a lower score for days alive and free of cardiovascular dysfunction indicates more cardiovascular dysfunction. The reason that days alive and free of cardiovascular dysfunction is preferable to simply presence or absence of cardiovascular dysfunction is that severe sepsis has a high acute mortality so that early death (within 28-days) precludes calculation of the presence or absence of cardiovascular dysfunction in dead subjects. […]

[1] = steroid-treated, rs7222094 TT (N = 74), Table 4.3 25th percentile/median/75th percentile, Table 4.5 median

With hydrocortisone [steroids] the “worse survival of steroid-treated than untreated subjects” value (rs7222094 CC subjects, p=0.02023, Pearson's Chi-square) was 15%, the “28-day survival and organ dysfunction compared to controls (in words)” value (steroid-treated subjects with rs7222094 CC) was “lower 28-day survival and more organ dysfunction than controls; also recorded: decreases 28-day survival” and the “28-day survival and organ function compared to controls (in words)” value (steroid-treated subjects with rs7222094 TT) was “increased survival and improved organ function; also recorded: improved compared with controls”. The “SURV (28-Day Survival)” value (steroid-treated, genotypes Combined (N = 355)) was 57% (203), the “SURV (28-Day Survival)” value (steroid-treated, rs7222094 CC (N = 122)) was 45% (55) and the “RENAL.DAF (Days alive and free of any type of renal dysfunction)” value (steroid-treated, rs7222094 CC (N = 122), Table 4.3 25th percentile/median/75th percentile, Table 4.5 median) was 0 days. The “SURV (28-Day Survival)” value (steroid-treated, rs7222094 TC (N = 159)) was 59% (94), the “DA (Days alive)” value [1] was 28 days and the “INR.DAF (Days alive and free of international normalized ratio >1.5)” value [1] was 27 days. The “LIVER.DAF (Days alive and free of any type of hepatic dysfunction)” value [1] was 28 days, the “Delta SURV (28-Day Survival)” value (rs7222094 CC) was −15.0 and the “Delta SURV (28-Day Survival)” value (rs7222094 TC) was −7.0. For the same substance, the “Delta SURV (28-Day Survival)” value (rs7222094 TT) was 3.0, the “Delta COAG.DAF (Days alive and free of coagulation dysfunction)” value (rs7222094 CC) was -11.5 days and the “Delta CVS.DAF (Days alive and free of cardiovascular dysfunction)” value (rs7222094 CC) was -1.0 days. For the same substance, the “Delta DA (Days alive)” value (rs7222094 CC) was -5.0 days, the “Delta INR.DAF (Days alive and free of international normalized ratio >1.5)” value (rs7222094 CC) was -6.0 days and the “Delta LIVER.DAF (Days alive and free of any type of hepatic dysfunction)” value (rs7222094 CC) was -6.5 days. For the same substance, the “Delta PRESS.DAF (Days alive and free of any vasopressors)” value (rs7222094 CC) was -11.0 days, the “Delta RENAL.DAF (Days alive and free of any type of renal dysfunction)” value (rs7222094 CC) was -4.0 days and the “Delta RENSUP.DAF (Days alive and free of renal support)” value (rs7222094 CC) was -9.0 days. For the same substance, the “Delta RESP.DAF (Days alive and free of respiratory dysfunction)” value (rs7222094 CC) was -12.0 days, the “Delta VENT.DAF (Days alive and free of mechanical ventilators)” value (rs7222094 CC) was -11.0 days and the “Delta COAG.DAF (Days alive and free of coagulation dysfunction)” value (rs7222094 TC) was -3.0 days. The “Delta CVS.DAF (Days alive and free of cardiovascular dysfunction)” value (rs7222094 TC) was -0.5 days, the “Delta DA (Days alive)” value (rs7222094 TC) was 0.0 days and the “Delta INR.DAF (Days alive and free of international normalized ratio >1.5)” value (rs7222094 TC) was -1.0 days. The “Delta LIVER.DAF (Days alive and free of any type of hepatic dysfunction)” value (rs7222094 TC) was 0.0 days, the “Delta PRESS.DAF (Days alive and free of any vasopressors)” value (rs7222094 TC) was -7.0 days and the “Delta RENAL.DAF (Days alive and free of any type of renal dysfunction)” value (rs7222094 TC) was -9.5 days. The “Delta RENSUP.DAF (Days alive and free of renal support)” value (rs7222094 TC) was -9.0 days, the “Delta RESP.DAF (Days alive and free of respiratory dysfunction)” value (rs7222094 TC) was -7.0 days and the “Delta VENT.DAF (Days alive and free of mechanical ventilators)” value (rs7222094 TC) was -11.0 days. The “Delta COAG.DAF (Days alive and free of coagulation dysfunction)” value (rs7222094 TT) was -0.5 days, the “Delta CVS.DAF (Days alive and free of cardiovascular dysfunction)” value (rs7222094 TT) was 1.0 days and the “Delta DA (Days alive)” value (rs7222094 TT) was 0.0 days. The “Delta INR.DAF (Days alive and free of international normalized ratio >1.5)” value (rs7222094 TT) was 0.0 days, the “Delta LIVER.DAF (Days alive and free of any type of hepatic dysfunction)” value (rs7222094 TT) was 0.0 days and the “Delta PRESS.DAF (Days alive and free of any vasopressors)” value (rs7222094 TT) was -2.0 days. The “Delta RENAL.DAF (Days alive and free of any type of renal dysfunction)” value (rs7222094 TT) was -5.5 days, the “Delta RENSUP.DAF (Days alive and free of renal support)” value (rs7222094 TT) was 0.0 days and the “Delta RESP.DAF (Days alive and free of respiratory dysfunction)” value (rs7222094 TT) was -2.0 days. The “Delta VENT.DAF (Days alive and free of mechanical ventilators)” value (rs7222094 TT) was -2.0 days.
